In paper PMC10577221, “A cyclic peptide-based PROTAC induces intracellular degradation of palmitoyltransferase and potently decreases PD-L1 expression in human cervical cancer cells” (Frontiers in Immunology, 2023):

Test system: C33A cells
Test: Colony formation assay
Type: cell-based, human
Conditions: 14 days culture, compared to blank control
Experimental: Cells treated with drugs were separately seeded in a 6-well plate and cultured continuously for 14 days. During this period, the culture medium was changed every 2-3 days. Once visible cell colonies formed, the culture medium was removed, and the cells were fixed with 4% paraformaldehyde for 30 minutes, followed by staining with 0.1% crystal violet for 30 minutes. Finally, the colonies were counted and photographed using an optical microscope.

N.N.[Cl][Pt][Cl] [cisplatin]
number of C33A colonies, single agent: decreased
